Assay results reported in ChEMBL document CHEMBL1201862, “PubChem BioAssay data set” (2004).
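In this assay, cells in 96-well plates receive the compound at five concentrations for 48 hours. Endpoints are linearly interpolated between the surrounding concentrations. Here, GI50 denotes the concentration required for 50% inhibition of growth.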 Calls of active or inactive are those of the source. Cut-off read from the data, not from the text of the source: active = GI50 up to about 1.1 µM and inactive = higher.

What was measured:
Assay in all cases: DTP human tumour cell line panel, 48 h
A549 = test system: A549
CCRF-CEM = test system: CCRF-CEM
UACC-257 = test system: UACC-257
RPMI-8226 = test system: RPMI-8226
HCT-116 = test system: HCT-116
SNB-19 = test system: SNB-19
EKVX = test system: EKVX
COLO 205 = test system: COLO 205
A498 = test system: A498
HCC 2998 = test system: HCC 2998
HOP-62 = test system: HOP-62
KM12 = test system: KM12
786-0 = test system: 786-0
SK-MEL-2 = test system: SK-MEL-2
NCI-H226 = test system: NCI-H226

SMILES | GI50 (A549) | GI50 (CCRF-CEM) | GI50 (UACC-257) | GI50 (RPMI-8226) | GI50 (HCT-116) | GI50 (SNB-19) | GI50 (EKVX) | GI50 (COLO 205) | GI50 (A498) | GI50 (HCC 2998) | GI50 (HOP-62) | GI50 (KM12) | GI50 (786-0) | GI50 (SK-MEL-2) | GI50 (NCI-H226)
COc1ccc(C(=O)C(CO)Oc2ccccc2OC)cc1OC (stereo not drawn) | > 100 µM (inactive) | > 100 µM (inactive) | > 100 µM (inactive) | > 100 µM (inactive) | > 100 µM (inactive) | > 100 µM (inactive) | > 100 µM (inactive) | > 100 µM (inactive) | > 100 µM (inactive) | > 100 µM (inactive) | > 100 µM (inactive) | > 100 µM (inactive) | > 100 µM (inactive) | > 100 µM (inactive) | 
O=S1(=O)[C@H](c2ccccc2)c2c(-c3ccccc3)sc(-c3ccccc3)c2[C@@H]1c1ccccc1 | > 100 µM (inactive) | > 100 µM (inactive) | > 100 µM (inactive) | > 100 µM (inactive) |  | > 100 µM (inactive) | > 100 µM (inactive) | > 100 µM (inactive) |  | > 100 µM (inactive) | > 100 µM (inactive) | > 100 µM (inactive) | 38.9 µM (inactive) | > 100 µM (inactive) | 
CC(C)(C)c1cc(C#N)c2c(c1)C(=O)OC2(c1ccccc1)c1ccccc1C#N (stereo not drawn) | > 100 µM (inactive) | > 100 µM (inactive) | 87.7 µM (inactive) |  | > 100 µM (inactive) | > 100 µM (inactive) | > 100 µM (inactive) | > 100 µM (inactive) | > 100 µM (inactive) |  | > 100 µM (inactive) | 43 µM (inactive) | > 100 µM (inactive) | > 100 µM (inactive) | > 100 µM (inactive)
CC(C)(C)OC(=O)NC1CCC[C@H]1O (stereo partly drawn) | > 100 µM (inactive) | > 100 µM (inactive) | > 100 µM (inactive) |  | > 100 µM (inactive) | > 100 µM (inactive) | > 100 µM (inactive) |  | > 100 µM (inactive) | > 100 µM (inactive) | > 100 µM (inactive) | > 100 µM (inactive) | > 100 µM (inactive) | > 100 µM (inactive) | > 100 µM (inactive)
N=C(N)N/N=C/c1oc(-c2ccc(S(=O)(=O)O)o2)c(-c2ccc(S(=O)(=O)O)o2)c1[N+](=O)[O-] | > 100 µM (inactive) | > 100 µM (inactive) | > 100 µM (inactive) |  | > 100 µM (inactive) | > 100 µM (inactive) | > 100 µM (inactive) | > 100 µM (inactive) | > 100 µM (inactive) | > 100 µM (inactive) | > 100 µM (inactive) | > 100 µM (inactive) | > 100 µM (inactive) | > 100 µM (inactive) | > 100 µM (inactive)
C/C(=C\CBr)CCC(Br)C(C)(C)Cl (stereo not drawn) | > 100 µM (inactive) |  | > 100 µM (inactive) | > 100 µM (inactive) | > 100 µM (inactive) |  |  | > 100 µM (inactive) |  |  | > 100 µM (inactive) | > 100 µM (inactive) | > 100 µM (inactive) | > 100 µM (inactive) | > 100 µM (inactive)
O=C(c1ccc(Cl)cc1)c1ccc(OCCSCCCCCCCCCCSCCOc2ccc(C(=O)c3ccc(Cl)cc3)cc2)cc1 | > 100 µM (inactive) | > 100 µM (inactive) | > 100 µM (inactive) | > 100 µM (inactive) |  | > 100 µM (inactive) | > 100 µM (inactive) | > 100 µM (inactive) | > 100 µM (inactive) | > 100 µM (inactive) | > 100 µM (inactive) | > 100 µM (inactive) | > 100 µM (inactive) | > 100 µM (inactive) | > 100 µM (inactive)
C=C1C(=O)OC2CCCCC3OC3C12 (stereo not drawn) | 20.9 µM (inactive) | 3.04 µM (inactive) | 13.4 µM (inactive) | 5.55 µM (inactive) | 2.99 µM (inactive) | 20 µM (inactive) | 16.9 µM (inactive) | 3.23 µM (inactive) | 15.3 µM (inactive) | 11.7 µM (inactive) | 21.8 µM (inactive) | 16.6 µM (inactive) | 7.19 µM (inactive) | 12 µM (inactive) | 
O=C(NC1CCCCC1)c1c(O)[nH]c(=S)[nH]c1=O | 52.4 µM (inactive) | > 100 µM (inactive) | > 100 µM (inactive) | > 100 µM (inactive) | > 100 µM (inactive) | > 100 µM (inactive) |  | > 100 µM (inactive) | > 100 µM (inactive) |  | > 100 µM (inactive) | > 100 µM (inactive) | > 100 µM (inactive) | > 100 µM (inactive) | > 100 µM (inactive)
COc1cc(OC(C)=O)cc2c(OC(C)=O)ccc(OC(C)=O)c12 | > 100 µM (inactive) | 74.8 µM (inactive) | > 100 µM (inactive) | > 100 µM (inactive) | > 100 µM (inactive) | > 100 µM (inactive) | > 100 µM (inactive) |  | > 100 µM (inactive) |  | > 100 µM (inactive) | > 100 µM (inactive) | > 100 µM (inactive) | > 100 µM (inactive) | 
O=C(CSC(=S)N1CCCCC1)Nc1nc2c(s1)CCCC2 | 43.6 µM (inactive) | 29.4 µM (inactive) | 23.3 µM (inactive) | 33.5 µM (inactive) | 12.1 µM (inactive) | 71.1 µM (inactive) |  | 33.3 µM (inactive) | > 100 µM (inactive) | 48.3 µM (inactive) | 91.4 µM (inactive) | 57.4 µM (inactive) | 48.3 µM (inactive) | > 100 µM (inactive) | 43.4 µM (inactive)
CCOC(=O)c1ccc(N[C@@H]2c3cc4c(cc3C(C3=CC(=O)C(=O)C(OC)=C3)[C@H]3C(=O)OCC32)OCO4)cc1 (stereo partly drawn) | 0.548 µM (active) | 0.845 µM (active) | 9.08 µM (inactive) | 1.06 µM (active) | 2.86 µM (inactive) | 2.49 µM (inactive) | 3.73 µM (inactive) | 3.21 µM (inactive) | 1.77 µM (inactive) | 4.6 µM (inactive) | 0.512 µM (active) | 3.92 µM (inactive) | 1.6 µM (inactive) | 2.82 µM (inactive) | 
CCOc1ccc2c(c1)[n+]([O-])c(-c1ccc([N+](=O)[O-])cc1)c(N)[n+]2[O-] | > 100 µM (inactive) | 49.7 µM (inactive) | > 100 µM (inactive) |  | 62.2 µM (inactive) | > 100 µM (inactive) | > 100 µM (inactive) | > 100 µM (inactive) | > 100 µM (inactive) |  | > 100 µM (inactive) | > 100 µM (inactive) | > 100 µM (inactive) | > 100 µM (inactive) | > 100 µM (inactive)
COc1ccc(-c2oc(/C=N/NC(N)=S)c([N+](=O)[O-])c2-c2ccc(OC)c(OC)c2)cc1OC | 35.6 µM (inactive) | > 10 µM (inactive) | 31.8 µM (inactive) | 17 µM (inactive) | 19.2 µM (inactive) | 36.1 µM (inactive) | 22.8 µM (inactive) | > 100 µM (inactive) |  |  | 28 µM (inactive) |  | 27.1 µM (inactive) | 15.3 µM (inactive) | 28.1 µM (inactive)
COC(=O)CC1CCN(C#N)CC1CC[N+](=O)[O-] (stereo not drawn) | > 100 µM (inactive) | > 100 µM (inactive) | > 100 µM (inactive) | > 100 µM (inactive) | > 100 µM (inactive) | > 100 µM (inactive) |  | > 100 µM (inactive) | > 100 µM (inactive) | > 100 µM (inactive) | > 100 µM (inactive) | > 100 µM (inactive) | > 100 µM (inactive) | > 100 µM (inactive) | > 100 µM (inactive)
CCOC(=O)C(=O)Nc1c(C)cccc1C(C)(C)C |  |  | > 100 µM (inactive) | > 100 µM (inactive) | > 100 µM (inactive) | > 100 µM (inactive) | > 100 µM (inactive) | > 100 µM (inactive) |  | > 100 µM (inactive) | > 100 µM (inactive) | > 100 µM (inactive) | > 100 µM (inactive) | > 100 µM (inactive) | > 100 µM (inactive)
COc1cc(Oc2c(O)c(C)c(OC)c(C(C)=O)c2O)c(C(C)=O)c(O)c1C | 45.8 µM (inactive) | > 100 µM (inactive) | 40.6 µM (inactive) |  | 52.8 µM (inactive) | 63 µM (inactive) |  | 60.1 µM (inactive) |  | 59 µM (inactive) | 34.3 µM (inactive) | 65.3 µM (inactive) | 60.7 µM (inactive) |  | 85.9 µM (inactive)
C=C(C)C12CC3CC(/C(=N/O)C(C1)/C3=N\O)[C@@]2(C)O (stereo partly drawn) | > 100 µM (inactive) | > 100 µM (inactive) | > 100 µM (inactive) | > 100 µM (inactive) | > 100 µM (inactive) | > 100 µM (inactive) | > 100 µM (inactive) | > 100 µM (inactive) |  | > 100 µM (inactive) | > 100 µM (inactive) |  | > 100 µM (inactive) | > 100 µM (inactive) | > 100 µM (inactive)
CNC(=O)OCc1cc2ccncc2c2c1[nH]c1ccccc12 | > 27.4 µM (inactive) | 7.4 µM (inactive) | > 100 µM (inactive) | > 88.3 µM (inactive) | 5.16 µM (inactive) | > 53.7 µM (inactive) | > 100 µM (inactive) | > 28.3 µM (inactive) |  | > 58.5 µM (inactive) | 10 µM (inactive) | 5.09 µM (inactive) | 26.7 µM (inactive) | > 100 µM (inactive) | > 100 µM (inactive)
COc1ccc(C(c2c(O)c3ccccc3n(C)c2=O)c2c(O)c3ccccc3n(C)c2=O)cc1 | 37.5 µM (inactive) |  | 19.5 µM (inactive) | 46 µM (inactive) | 36 µM (inactive) | 39.5 µM (inactive) | 34.8 µM (inactive) | 57.3 µM (inactive) |  | 40.2 µM (inactive) |  | 22.4 µM (inactive) | 28.1 µM (inactive) | > 100 µM (inactive) | 24.5 µM (inactive)
